Measured values: US20060106028A1, “Polycyclic aromatics and derivatives thereof and processes for their preparation” (priority 2004, published 2006)
In brackets after ≈: the same amount, converted by molar mass.

Legend:
[1] = tested on: Enterococcus faecalis VRE-1 (ATCC™ 29212); assay: Antibacterial activity, MIC (NCCLS M7-A5); type: cell-based; conditions: BHI+ medium, 35° C., 16 to 20 hours
[2] = tested on: Streptococcus pneumoniae (LSPQ 3412); assay: Antibacterial activity, MIC (NCCLS M7-A5); type: cell-based; conditions: MH medium +2% lysed horse blood
[3] = tested on: CD-1 nu/nlu mice; assay: Acute toxicity in CD-1 nu/nu mice; type: in vivo; conditions: i.v.; 6% Tween/4.5% Glycocholate/5% EtOH formulation
Procedure: (§1) Toxicity and therapeutic efficacy of polycyclic aromatic compounds can be determined by standard pharmaceutical procedures in cell cultures or experimental animals. Therapeutic efficacy is determined in animal models as described above and in the examples herein. Toxicity studies are done to determine the lethal dose for 10% of tested animals (LD10). Animals are treated at the maximum tolerated dose (MTD): the highest dose not producing mortality or greater than 20% body weight loss. The effective dose (ED) is related to the MTD in a given tumor model to determine the therapeutic index of the compound.
(§2) In vivo toxicity: With CD1 mice, the maximum tolerated dose (MTD) for a single-dose via i.v. or i.p. routes in 1% SDS formulation was ≧5 mg/kg. The acute toxicity in CD-1 nu/nlu mice of Compound 1 was also determined in 6% Tween/4.5% Glycocholate/5% EtOH formulation.

[4] = Acute toxicity in CD-1 nu/nu mice; type: in vivo; conditions: CD-1 nu/nu, mouse, in vivo, 6% Tween/4.5% Glycocholate/5% EtOH formulation
Procedure: as §1, §2

[5] = tested on: Staphylococcus aureus (ATCC™ 6538P); assay: Antibacterial activity, MIC (NCCLS M7-A5); type: cell-based; conditions: MH medium, 35° C., 16 to 20 hours
[6] = tested on: 1657L (Pancreas); assay: In vitro cytotoxic activity, 36 tumor cell lines panel; type: cell-based; conditions: 96 hours
Procedure: (§3) Culture conditions and activity evaluations of Compound 1 against 36 cancer cell lines were done as described below. Results were expressed as the concentration of drug which inhibits 50% of the cell growth (IC50, calculated using the formula: [Ti/C]×100=−50).
(§4) The compound was dissolved at 10 mM in DMSO. Dilution in vehicle to concentrations of 30, 10, 3, 1 and 0.3 μM were prepared immediately before assays. Depending on the cell line's growth characteristics, 4000-10000 cells were plated in two 96-wells pates (day 0) and incubated for 16 hours. The following day, propidium iodide was added to one of the two plates. Test compound was added to the second plate, as well as vehicle control, and cells further incubated for 96 hours. The compound was tested at each concentration and in triplicates. The equivalent cell number was determined after adding propidium iodide by measuring the signal by fluorescence (Ti for test article, C for control).

[7] = tested on: 520L (Melanoma); assay: as above; type: cell-based; conditions: 96 hours
Procedure: as §3, §4

[8] = tested on: 1121L (Lung); assay: as above; type: cell-based; conditions: 96 hours
Procedure: as §3, §4

[9] = tested on: 1781L (Renal); assay: as above; type: cell-based; conditions: 96 hours
Procedure: as §3, §4

[10] = tested on: 276L (Melanoma); assay: as above; type: cell-based; conditions: 96 hours
Procedure: as §3, §4

[11] = tested on: 462NL (Melanoma); assay: as above; type: cell-based; conditions: 96 hours
Procedure: as §3, §4

[12] = tested on: Enterococcus faecalis VRE-2 (ATCC™ 51299); assay: Antibacterial activity, MIC (NCCLS M7-A5); type: cell-based; conditions: BHI+ medium, 35° C., 16 to 20 hours
[13] = tested on: Staphylococcus aureus (Smith strain, ATCC™ 13709); assay: In vivo antimicrobial efficacy in infected ICR mice; conditions: ip, ICR mice infected i.p., compound i.p. one hour post infection in 1% SDS, mortality recorded for 7 days, read-out: median effective dose (ED50)
Procedure: In vivo efficacy studies were performed on ICR mice (supplied by Charles River Laboratories, Wilmington, Mass.) having a bodyweight of 20±2 g. Mice (38) were inoculated i.p. with an LD90-100 dose (1×10^6 CFU/mouse) of Staphylococcus aureus (Smith strain, ATCC™ 13709) suspended in 0.5 mL of BHI containing 5% mucin. Compound 1 at doses 0.1, 0.5, 1 and 5 mg/kg (formulated in 1% SDS for a total volume of 5 μL/g of weight) was administered i.p. one hour post infection (5 mice for each concentration). Another group of 5 mice was treated i.v. with a 10 mg/kg dose of Vancomycin. Finally, a group of 3 mice was administered vehicle only. Mortality was recorded for 7 days.

[14] = tested on: Staphylococcus aureus MRS3 (ATCC™ 700699); assay: Antibacterial activity, MIC (NCCLS M7-A5); type: cell-based; conditions: MH medium, 35° C., 16 to 20 hours
[15] = tested on: PC-3 (prostate adenocarcinoma); assay: In vitro tumor growth inhibition (GI50, propidium iodide); type: cell-based; conditions: 96 hrs
[16] = tested on: HT-29 (colorectal carcinoma); assay: as above; type: cell-based; conditions: Homo sapiens, 96 hrs
[17] = tested on: Saccharomyces cerevisiae FHCRC-50514; assay: Antifungal activity, MIC (NCCLS M27-A); type: cell-based; conditions: FHCRC50514, after 24 hours, YPD medium
Procedure: (§5) Testing of antifungal activity was performed according to NCCLS method (NCCLS. Reference Method for Broth Dilution Antifungal Susceptibility Testing of Yeasts; Approved Standard. NCCLS document M27-A (ISBN 1-56238-328-0). NCCLS, 940 West Valley Road, Suite 1400, Wayne, Pa. 19087-1898 USA; www.nccls.org.). Compound 1 was prepared as 100× stock solutions in DMSO, with concentrations ranging from 3.2 mg/mL to 0.003 mg/mL (a two-fold dilution series over 11 points). An aliquot of each 100× stock solution was diluted 50-fold in test medium described below to give a set of eleven (11) 2× solutions. 50 μL of each of the eleven 2× solutions was aliquoted into the corresponding well of a 12-well row, with the final well reserved for medium alone control. Inoculum density for each indicator strain was adjusted to OD600=0.1 in 5 mL 0.85% saline, then further diluted 1/1000 in YPD medium. 50 μL of the final dilution (in test medium) of each indicator strain was added to each well of a 12-well row. This brings the final dilution of the test article or control compound in solution to 1×. The final inoculum was approximately 5×10^4 CFU/ml.
(§6) Bacterial strains Streptococcus pneumoniae LSPQ 3412 and LSPQ 3349 were obtained from the “Laboratoire de Sante Publique du Quebec”. Saccharomyces cerevisiae FHCRC-50014 and FHCRC-50514 were obtained from the “Fred Hutchison Cancer Research Center”.

[18] = tested on: Saccharomyces cerevisiae FHCRC-50014; assay: Antifungal activity, MIC (NCCLS M27-A); type: cell-based; conditions: FHCRC50014, after 24 hours, YPD medium
Procedure: as §5, §6

[19] = tested on: 36 cancer cell lines; assay: In vitro cytotoxic activity, mean of all cell lines of the panel; type: cell-based; conditions: mean over the 36 cell lines
Procedure: as §3, §4

CCC(C)c1cc2c(=O)c3ccc4c(OC)c5c(=O)c6c(O)ccc(O)c6c(=O)c5c(O)c4c3c(=O)c2c(=O)n1CC(=O)N1CC(C(=O)O)NC(=O)C1C (centres unmarked) [Compound 1]
MIC [1]: 0.063 mg/L (≈ 0.0854 µM)
MIC [2]: 0.5 to 1 mg/L (≈ 0.678 to 1.36 µM)
Injection site observation [3]: necrosis at the injection site was observed
MTD ([4]; ip): ≥ 50 mg/kg
MTD ([4]; iv): 25 mg/kg
MIC [5]: 0.016 mg/L (≈ 0.0217 µM)
IC50 [6]: 20 µM
IC50 [7]: 7.25 µM
IC50 [8]: 0.63 µM
IC50 [9]: 7.54 µM
IC50 [10]: 8.26 µM
IC50 [11]: 24.7 µM
MIC [12]: 0.125 mg/L (≈ 0.169 µM)
ED50 [13]: < 0.1 mg/kg
MIC [14]: 0.016 mg/L (≈ 0.0217 µM)
GI50 [15]: 11.1 µM
GI50 [16]: 8.85 µM
MIC [17]: 8 mg/L (≈ 10.8 µM)
MIC [18]: 8 mg/L (≈ 10.8 µM)
IC50 [19]: 9.34 µM
